These results are taken from ChEMBL document CHEMBL3045366, “Pyridazin-3(2H)-ones: the versatile pharmacophore of medicinal significance” (Med Chem Res, 2013).

One series has as its system Mus musculus. Kind of series: Anti-inflammatory activity in Mus musculus (mouse) assessed as inhibition of arachidonic acid-induced ear edema at 30 umol/kg, po relative to control. It counts as functional.
Series [1] in a line: Half life in Rattus norvegicus (rat). It counts as ADME, organism-based. Conditions: in vivo.
The test system of the next series is Thoracic aorta. Kind of series: Inodilatory activity in Wistar Rattus norvegicus (rat) thoracic aorta assessed as inhibition of phenylephrine-induced contraction. It counts as functional, tissue-based.
The nature of series [2]: Inhibition of acyl-coA cholesterol O-acyltransferase (unknown origin). Further details: species or system Homo sapiens.

One may read the inhibition in vivo as the relative decrease from the control value, in per cent. A word on the half-life: it is the time needed for the level to fall by half in the phase considered. A word on the IC50: it is the concentration needed to halve the response being measured.

Take `COc1ccc(C2=NN(CCCCOc3ccc(C4=NNC(=O)CC4C)cc3)C(=O)C3CC=CCC23)cc1Cl` (stereo not given): the inhibition in vivo at 30 µmol/kg in the series with Mus musculus stood at 46%.
`O=C(O)COc1cccc2c1CC[C@H](Cn1nc(C(c3ccccc3)c3ccccc3)ccc1=O)C2` showed a half-life in series [1] of 4.3 h.
With `CCOc1ccc(C2=NN(CCCCOc3ccc(C4=NNC(=O)CC4C)cc3)C(=O)C3CC=CCC23)cc1OCC` (stereo not given), in the series with Mus musculus, the inhibition in vivo at 30 µmol/kg worked out at 46%.
For the compound `CS(=O)(=O)Nc1ccc(C2=NN(c3ccccc3)C(=O)CC2)cc1`, in the series with Thoracic aorta, the IC50 was determined as 0.08 µM.
In turn, `CCCCCCn1nc(-c2ccccc2)c(-c2ccccc2)cc1=O` returned an IC50 in series [2] of 57 µM.
